Structures can show the parent of a compound that is named as a salt. Ends that are not written are not given here. Peptide text beside a SMILES is read from it.
Assays:
[1] = test system: protein synthesis of liver tissue; experiment: In vivo-in vitro test: protein synthesis rate of liver tissue (14C amino acid incorporation in microsomal cell juice); parameters: species or system male rats (Wistar); conditions: 4 weeks; for Δ % control rat group treated: versus treated (physiological sodium chloride s.c.) control group; for Δ % control rat group untreated: versus untreated control group; for Protein synthesis rates compared with the two control groups: male rats, daily s.c.
Experimental: De-protecting reactions are carried out according to methods known per se in polypeptide chemistry. Peptides wherein Y represents OR are prepared, for example, starting from the C-terminal amino acid esterified by the appropriate alcohol. Peptides wherein Y represents OH can be prepared, for example, by hydrolysis of peptides wherein Y represents OR. Peptides wherein Y represents NH2, NHR or NR2 can be prepared by ammonolysis of the corresponding esters or starting from a C-terminal amino acid amidated by an appropriate amine. Hydrazido or substituted hydrazido derivatives according to the invention are prepared by condensation of the N-protected peptide or amino acid with a suitably substituted hydrazine, such as benzylcarbazate, t-butylcarbazate, adamantylcarbazate, phenylhydrazine or adamantylhydrazine, or reacting the N-protected peptide or amino acid hydrazide with a suitable alkylating agent, such as an alkyl chloride, or with a suitable acylating agent such as benzylchloroformate, t-butylchloroformate, di-t-butyldicarbonate or adamantylfluoroformate. […] The compounds according to the invention show an interesting growth promoting activity in animals determined both by the in vivo-in vitro test system on protein synthesis of liver tissue (as described by K. Kammerer and A. Dey-Hazra (1980) Vet. Med. Nachr. Nr. 2, 99-112), and by the dose-dependent increase in weight gain and feed efficiency after subcutaneous or oral administration.
The growth tests were carried out for periods of 4 weeks, using groups of 6 male rats (Wistar, Hagemann, Extertal) divided in subgroups of three animals managed in Markolon cages, good shaving as litter.
Water and feed (Altromin 1321 Standard diet containing 19% crude protein): ad libitum.
The peptides of the present invention were administered in solution s.c. daily at doses of 10, 50 and 100 ng/kg, using as diluent normal saline (starting from a stock solution with 100 ng/ml).
Homogenise 3 g liver in 9 ml TKM buffer-saccharose solution, cooled on ice, in a Potter homogeniser at 600 r.p.m. for 2 min.; centrifuge at 4° C. in an ultracentrifuge with 10,000 g for 20 min., decant the supernatant=microsomal cell juice.
After calculation of protein content in the microsomal cell juice by means of the biuret method, the protein concentration was adjusted with TKM buffer to 1 mg/ml. To that, a further dilution with bidistilled water to 0.25 mg protein per ml of the microsomal cell juice followed.
Subsequently portions of 0.15 l ml reaction medium and 0.05 ml (50 mcg) of pyruvate kinase solution, as well as 0.1 ml of ^14 C amino acid mixture (=1 μCi) were added. The volume of the incubation mixture was then 1 ml each.
After a 35 minute incubation at 37° C. in a water bath, protein precipitation was performed by adding 2 ml of trichloracetic acid (10%). The sediment was washed by several additions of trichloroacetic acid and subsequent centrifugation (3600 g/5 min) until the supernatant was free from radioactivity.
The residue was dissolved in 1.0 ml Lumasolve and left overnight at 37° C., until it was clear.
Measuring the preparation was done in a PRIAS liquid scintillation counter PL (1.0 ml+5 ml scintillation liquid).
A detailed method is described in the above cited Kammerer article.

[2] = Growth test in pigs (body weight, feed consumption, feed efficiency); assay type: in vivo, castrated male pigs (Hybrids)
Experimental: The growth test was carried out for a period of 3 weeks, using groups of 7 castrated male pigs (Hybrids) divided in subgroups and managed in cages with flat decks. The pigs were fed during the whole experimental period with grower feed (Hoveler, normal type without feed additives), 1 kg per day. Water was given ad libitum. The weights were weekly recorded.

[3] = 50 ng/kg daily injection, 3 weeks
[4] = 50 ng/kg, 3 weeks, versus untreated group 1

Compound	Δ % control rat group treated ([1]; 10 ng/kg daily s.c.)	Δ % control rat group untreated ([1]; 10 ng/kg daily s.c.)	Δ % control rat group treated ([1]; 50 ng/kg daily s.c.)	Δ % control rat group untreated ([1]; 50 ng/kg daily s.c.)	Δ % control rat group treated ([1]; 100 ng/kg daily s.c.)	Δ % control rat group untreated ([1]; 100 ng/kg daily s.c.)	Protein synthesis rates compared with the two control groups [1]	Weight after 1 week ([2]; 50 ng/kg daily injection) [kg]	Weight after 2 weeks ([2]; 50 ng/kg daily injection) [kg]	Weight after 3 weeks ([2]; 50 ng/kg daily injection) [kg]	Weight gain [2, 3] [kg]	Weight gain in % [2, 3] [%]	Initial weight ([2]; 50 ng/kg daily injection, baseline) [kg]	Feed efficiency (kg feed/kg weight gain) ([2]; 50 ng/kg, 3 weeks)	Consumption (feed) ([2]; 50 ng/kg, 3 weeks, feed 1 kg per day) [kg]	Feed efficiency Δ % to control group [2, 4] [%]	Weight gain Δ % to control group [2, 4]	Weight gain (in words) ([2]; daily injection)
COC(=O)[C@H](CCSC)NC(=O)[C@H](Cc1c[nH]c2ccccc12)NC(=O)CNC(=O)[C@H](CC(C)C)NC(=O)[C@@H]1CCCN1C(=O)[C@@H]1CCCN1C(=O)[C@@H](N)C(C)C [Ex. 2 (TK7D), HCl.H-Val-Pro-Pro-Leu-Gly-Trp-Met-OMe] (H-VPPLGWM-OMe)	+29.4%	+11.9%	+38.2%	+19.4%	+63.2%	+41.0%	significantly different from the two control groups											
VPPLGWM [Ex. 1 (TK7), H-Val-Pro-Pro-Leu-Gly-Trp-Met-OH.HCl]	+36.1%	+17.7%	+46.0%	+26.2%	+56.5%	+35.3%	significantly different from the two control groups	15.2	17.8	20.7	9.0	76.9	11.7	2.33	21	-24.6	+32.4%	clear increase in weight gain
